Laboratory results as given in patent US10793543B2, “Selective C-KIT kinase inhibitor” (PRECEDO PHARMACEUTICALS CO., LTD, priority 2016, dated 2020).

Columns and labels:
[1] = tested on: K562 cells (P210 Bcr-Abl); experiment: Cancer cell proliferation, CCK-8, K562; type: cell-based; conditions: Homo sapiens; K562, P210 Bcr-Abl, 72 hours, CCK-8; read-out: GI50
Source text: (§1) In the present example, the following cells were used: chronic myelogenous leukemia cells K562 (expressing P210 Bcr-Abl mutant gene), human megakaryocytic leukemia cells MEG-01 (expressing P210 Bcr-Abl mutant gene), human peripheral blood basophilic leukemia cells Ku812 (expressing Bcr-Abl mutant gene) (all above cells purchased from ATCC, USA), human gastrointestinal stromal tumor cell lines GIST-T1 cells (expressing wild-type C-KIT gene) (purchased from Cosmo Bio Co., Ltd., Japan), human gastrointestinal stromal tumor cell lines GIST-882 cells (expressing wild-type C-KIT gene) (presented by the Professor Gray Lab, Dana-Farber Cancer Institute, Harvard University, USA), mouse pro-B cells BaF3 (purchased from ATCC, USA).
(§2) The cells were incubated for 72 hours, and then the number of viable cells was quantified with a microplate reader by using CCK-8 Cell Viability Assay Kit (purchased from Bestbio Company, Shanghai, China) (CCK-8 can be reduced by dehydrogenase in living cells to a highly water-soluble yellow formazan product, and the amount of formazan produced is proportional to the number of living cells).

GIST-T1 cells [2] = experiment: Cancer cell proliferation, CCK-8, GIST-T1; type: cell-based; conditions: Homo sapiens, GISTT1, GIST-T1, KIT WT, 72 hours
Source text: as §1, §2

[3] = tested on: Tel-VEGFR2-BaF3 cells (VEGFR2); experiment: Cell proliferation, CCK-8, Tel-VEGFR2-BaF3; type: cell-based; conditions: Mus musculus, Tel-VEGFR2-BaF3, VEGFR2, 72 hours
Source text: In addition, in the present example, further uses: mouse P210/BaF3 (stably expressing P210 Bcr-Abl mutant gene), mouse Tel-ABL-BaF3 (stably expressing wild-type ABL kinase), mouse Tel-cKit-BaF3 (stably expressing C-KITwild-type kinase), mouse Tel-cKit/V559D-BaF3 (stably expressing C-KIT V559D mutant kinase), mouse Tel-cKit/V559D/V654A-BaF3 (stably expressing C-KIT V559D/V654A mutant kinase), mouse Tel-cKit/N822K-BaF3 (stably expressing C-KIT N822K mutant kinase), mouse Tel-cKit/V654A-BaF3 (stably expressing C-KIT V654A mutant kinase), mouse Tel-cKit/L567P-BaF3 (stably expressing C-KIT L567P mutant kinase), mouse Tel-cKit/T670I-BaF3 (stably expressing C-KIT T670I mutant kinase), mouse Tel-PDGFRα-BaF3 (stably expressing PDGFRα kinase), mouse Tel-PDGFRβ-BaF3 (stably expressing PDGFRβ kinase), mouse Tel-VEGFR2-BaF3 (stably expressing VEGFR2 kinase), mouse Tel-RET-BaF3 (stably expressing RET kinase). The above cell lines were all constructed by our laboratory according to the following method: the kinase region sequences of human P210 Bcr-Abl, ABL, C-KIT, C-KIT V559D, C-KIT V559D/V654A, C-KIT N822K, C-KIT V654A, C-KIT L567P, C-KIT T670I, PDGFRα, PDGFRβ, VEGFR2, RET were amplified respectively by PCR, inserted respectively into MSCV-Puro vectors harboring N-terminal TEL fragment and/or NPM fragment and/or TPR fragment (Clontech), then the vectors were stably transfected into mouse BaF3 cells by retrovirus methods and growth factor IL-3 was removed, eventually obtaining cell lines that are transferred protein (P210 Bcr-Abl, ABL, C-KIT, C-KIT V559D, C-KIT V559D/V654A, C-KIT N822K, C-KIT V654A, C-KIT L567P, C-KIT T670I, PDGFRα, PDGFRβ, VEGFR2, RET)-dependent.
as §2

GIST-T1 cells [4] = experiment: Apoptosis, PARP and Caspase 3 cleavage by Western Blot, GIST-T1; type: cell-based, human; conditions: GIST-T1, 0.3 μM, 48 hours
Source text: The effects of different concentrations of drugs on protein cleavage of DNA repairase poly(ADP-ribose) polymerase (PARP) and Caspase (cysteinyl aspartate-specific proteinase) 3 at different periods of time were examined by Western Blot.

protein kinase C-KIT = target: T1, protein kinase C-KIT (Homo sapiens, UniProt P10721); experiment: In vitro enzyme activity assay (ADP-Glo); type: biochemical; conditions: purified C-KIT kinase domain, ATP 10 μM
T1 construct: The kinase domain of protein kinase C-KIT was cloned into the insect expression vector pFASTHTA; His tag; made in house; host or cells: SF9 insect cells (Bac-to-Bac baculovirus system)
Description: The IC50 value of Compound 4 against protein kinase C-KIT was determined in an in vitro enzyme activity assay. The kinase domain of protein kinase C-KIT was cloned into the insect expression vector pFASTHTA (purchased from Invitrogen life technologies), and the protein with His tag was expressed using the insect expression system Bac-to-Bac Baculovirus Expression System (purchased from Invitrogen life technologies). The constructed vector was transfected into SF9 packaging virus (purchased from Invitrogen life technologies), and the virus was used to infect SF9 to express the protein. Purification was performed using affinity chromatography.
9 μL (6 ng/μL) of purified C-KIT protein kinase was reacted with 1 μL of the above Compound 4 with 3× gradient dilution (the final concentrations of the drug were 10 μM, 3 μM, 1 μM, 0.3 μM, 0.1 μM, 0.03 μM, 0.01 μM, 0.003 μM) at room temperature for 4 hours;
2 μL of ATP and 3 μL of substrate, Poly(4:1 Glu, Tyr)Peptide (Promega, US), were added (final concentrations were 10 μM and 0.2 μg/μL, respectively), and reacted at 37° C. for 1 hour; […]
10 μL of kinase detection reagent was added to transfer ADP into ATP, and the newly synthesized ATP was detected by using coupled luciferase/fluorescein reaction, then the IC50 values were calculated by using a plotting method based on the Envision reading.

[5] = tested on: gastrointestinal stromal tumor cell lines GIST-T1; experiment: Mouse tumor model of GIST-T1 cells; type: in vivo; conditions: for tumor inhibition rate: Day 28 after administration
Description: 1. 4-6 week-old Bal b/c female mice were purchased from Shanghai SLAC Experimental Animal Co., Ltd., and were raised in a SPF-level laboratory. Drinking water and padding were both subjected to aseptic processing via high-pressure disinfection, and all operations of the mice were conducted under aseptic conditions;
2. About 5×10^6 gastrointestinal stromal tumor cell lines GIST-T1 or GIST-882 (purchased from ATCC) were respectively injected subcutaneously at left side back of all mice at Day 0;
5. Mice were sacrificed on Day 36 (for GIST-882 mouse model) or Day 43 (GIST-T1 mouse model) and subcutaneous tumors were taken out and weighed for comparison;
6. Tumor tissue specimens were prepared into protein lysate samples for further usage;
7. Growth trend of subcutaneous tumors from Day 16 to Day 43 was derived, and tumor volume was calculated as length×width×width/2 mm^3.

T1 sequence (P10721 589-937 limits assumed): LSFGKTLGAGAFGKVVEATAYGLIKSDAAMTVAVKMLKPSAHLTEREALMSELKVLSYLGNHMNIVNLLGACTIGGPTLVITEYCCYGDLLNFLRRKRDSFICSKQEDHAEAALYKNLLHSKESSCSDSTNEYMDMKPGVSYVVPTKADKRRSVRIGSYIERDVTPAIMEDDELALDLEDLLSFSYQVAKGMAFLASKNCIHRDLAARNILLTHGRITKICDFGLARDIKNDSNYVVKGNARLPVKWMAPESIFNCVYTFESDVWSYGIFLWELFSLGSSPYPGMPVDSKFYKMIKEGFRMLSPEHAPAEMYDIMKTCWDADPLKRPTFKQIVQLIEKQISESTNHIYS

For `Cc1ccc(NC(=O)c2cccc(C(F)(F)F)c2)cc1OC1CCN(C(=O)c2ccncc2)CC1` [Compound 4], the GI50 [1] was > 10000 nM, the GI50 (GIST-T1 cells [2]) was 21 nM and the GI50 [3] was 347 nM. For the same molecule, the “cleavage of PARP and Caspase 3” value (GIST-T1 cells [4]) was “significant cleavage”, the IC50 (protein kinase C-KIT) was 99 nM and the “inhibitory effect on mouse tumors” value ([5]; 25 mg/kg oral daily, Day 4 after administration) was “certain inhibitory effect”. The tumor inhibition rate ([5]; 50 mg/kg oral daily) was 65.3%, the tumor inhibition rate ([5]; 100 mg/kg oral daily) was 73.8% and the “effect on body weight of mice” value ([5]; oral daily dosing) was “no effect on the body weight of mice”.
